Source: EP0190597A2, “Retro-inverso analogs of the bradykinin potentiating peptide bpp 5a” (SCLAVO S.p.A., priority 1985, dated 1986)

Molecular target: angiotensin converting enzyme
Test: Inhibition of angiotensin converting enzyme (method of Cushman and Cheung)
Format: biochemical, rabbit
Conditions: in vitro; ratio of IC50 versus BPP5a or Glp-Lys-Phe-Ala-Pro-OH
Text: In particular, comparative experiments carried out […] in order to evaluate the ACE inhibitory activity of the compounds of the present invention gave the results reported in following table I (IC50 represents the concentration of the test compound, in µM, which inhibits the angiotensin converting enzyme by 50%. The enzyme employed in this test has been isolated from rabbit lungs according to the method by Cushman and Cheung described in Biochem. Pharmacol. 2Q, 1637, (1971)).

Glp--Lys-gPhe-mAla-Pro-OH
IC50 times higher than that of the natural product (BPPSa) or the corresponding uninverted peptide Glp-Lys-Phe-Ala-Pro-OH: more than 1000 times
